In patent US20230373935A1, “MODULATORS OF CYSTIC FIBROSIS TRANSMEMBRANE CONDUCTANCE REGULATOR” (VERTEX PHARMACEUTICALS INCORPORATED, priority 2020, published 2023) one finds CFTR modulatory activity data, which are given here for one molecule.

In the assay the target is CFTR (Homo sapiens, UniProt P13569). In words: standard Ussing Chamber Assay for CFTR potentiator activity. The assay is classed as cell-based.
CFTR, sequence (P13569 whole entry): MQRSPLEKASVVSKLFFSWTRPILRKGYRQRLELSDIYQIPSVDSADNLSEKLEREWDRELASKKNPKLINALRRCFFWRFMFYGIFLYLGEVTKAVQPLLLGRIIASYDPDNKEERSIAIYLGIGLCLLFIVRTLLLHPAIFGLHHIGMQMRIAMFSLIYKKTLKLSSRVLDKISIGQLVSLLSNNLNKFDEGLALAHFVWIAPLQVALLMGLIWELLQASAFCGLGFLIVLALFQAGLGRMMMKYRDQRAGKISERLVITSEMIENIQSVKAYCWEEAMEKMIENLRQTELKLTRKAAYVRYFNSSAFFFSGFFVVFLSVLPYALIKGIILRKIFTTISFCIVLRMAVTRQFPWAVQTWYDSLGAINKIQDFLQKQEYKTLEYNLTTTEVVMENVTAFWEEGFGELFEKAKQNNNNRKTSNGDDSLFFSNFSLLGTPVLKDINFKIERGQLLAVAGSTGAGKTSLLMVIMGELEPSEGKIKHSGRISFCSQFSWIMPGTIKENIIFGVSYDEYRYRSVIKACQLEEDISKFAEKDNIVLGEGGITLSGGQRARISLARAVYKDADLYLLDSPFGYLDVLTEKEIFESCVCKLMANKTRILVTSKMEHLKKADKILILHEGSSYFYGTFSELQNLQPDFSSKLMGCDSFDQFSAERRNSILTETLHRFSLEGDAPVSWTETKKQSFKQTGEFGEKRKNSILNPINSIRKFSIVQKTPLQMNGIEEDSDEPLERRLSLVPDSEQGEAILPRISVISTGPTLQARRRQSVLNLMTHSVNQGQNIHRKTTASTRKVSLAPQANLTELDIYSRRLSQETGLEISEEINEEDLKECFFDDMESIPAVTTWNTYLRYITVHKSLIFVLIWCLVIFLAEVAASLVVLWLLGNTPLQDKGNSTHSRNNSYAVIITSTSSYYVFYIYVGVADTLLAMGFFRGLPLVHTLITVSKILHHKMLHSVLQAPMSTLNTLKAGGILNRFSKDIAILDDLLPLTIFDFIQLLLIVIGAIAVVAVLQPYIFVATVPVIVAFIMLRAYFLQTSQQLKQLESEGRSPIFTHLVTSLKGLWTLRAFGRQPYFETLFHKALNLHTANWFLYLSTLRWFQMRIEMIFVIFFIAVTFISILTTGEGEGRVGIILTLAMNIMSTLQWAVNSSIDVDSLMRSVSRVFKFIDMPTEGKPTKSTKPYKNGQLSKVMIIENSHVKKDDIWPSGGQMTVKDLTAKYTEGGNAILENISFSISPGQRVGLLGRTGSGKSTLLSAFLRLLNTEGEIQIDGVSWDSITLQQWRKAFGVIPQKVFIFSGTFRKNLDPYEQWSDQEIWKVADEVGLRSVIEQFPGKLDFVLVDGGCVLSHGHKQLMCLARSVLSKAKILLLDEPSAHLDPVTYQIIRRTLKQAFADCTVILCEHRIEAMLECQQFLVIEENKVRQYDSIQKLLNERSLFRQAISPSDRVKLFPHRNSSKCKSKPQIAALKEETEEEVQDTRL

`C[C@@H]1CCCCC[C@](O)(C(F)(F)F)C2=NN=C(O2)c2nc(c(C(F)(F)F)cc2N)O1` [(6R,12R)-17-amino-12-methyl-6,15-bis(trifluoromethyl)-13,19-dioxa-3,4,18-triazatricyclo[12.3.1.12,5]nonadeca-1(18),2,4,14,16-pentaen-6-ol]: the CFTR modulatory activity entry is listed as “confirmed”.
